{"source": "patent US20250154202A1", "about": "“CYCLIC EPITOPE TAGS” (BIONTECH SE, priority 2022, published 2025)", "key": {"[1]": {"assay": "Plasma stability, human plasma", "settings": "human plasma, 37° C.; for half-life: plasma"}, "[2]": {"assay": "Plasma stability, mouse plasma", "description": "Plasma stability measurements were performed by spiking 5 μl of a 1 mM compound stock solution in DMSO into 495 μl of human or mouse Li-heparin plasma (Innovative Research, Cat. No, IPLALIH5OML (human) and IMS-BC-N (Balb C mouse). The spiked plasma was distributed in 50 μl aliquots into capped PCR tubes for incubation at 37° C. At each time point (0, 2, 6, 24 hours*) 3*aliquots were withdrawn from the incubator. Enzymatic reactions were quenched directly after withdrawal by adding 100 μl of acetonitrile/formic acid=99/1 (v/v). Quenched samples were stored at ambient temperature until the end of the incubation period (24 hrs*). After centrifugation, the supernatant was transferred into fresh vials and analyzed by LC-MS/MS in ESI positive mode (Waters ACQUITY UPLC I-Class System (SM-FTN) with Xevo TQD triple quadrupole mass spectrometer with control software Waters MassLynx). […] Values below the limit of quantification (0.1 μM) and outliers of triplicate results were excluded from further calculations. An exponential regression curve was fitted onto the concentration results. Half-life times were calculated from the slope of the regression curve (t1/2=ln(2)/slope).\nFor some samples, as indicated below, the incubation time was 6 hours. The 24 hour data was measured in triplicates whereas the 6 hour data was measured in duplicates."}, "[3]": {"settings": "Balb C, mouse, Li-heparin plasma"}, "[4]": {"settings": "mouse plasma, 37° C., timepoint 0 h"}, "[5]": {"settings": "mouse plasma, 37° C., timepoint 1 h"}, "[6]": {"settings": "mouse plasma, 37° C., timepoint 3 h"}, "[7]": {"settings": "mouse plasma, 37° C., timepoint 6 h"}}, "note": "Where “and” joins values, the source holds several entries; their conditions need not be identical. Equal values may be shown once. Bridge positions count the residues as written; N and C are the ends. Square brackets hold non-standard residues; d marks the D form. Peptide text beside a SMILES is read from it."}
{"compound": "CC(=O)N1CCC[C@H]1C(=O)N[C@@H](CO)C(=O)N[C@@H](CCCNC(=N)N)C(=O)N[C@@H](CC(C)C)C(=O)N[C@@H](CCC(=O)O)C(=O)N[C@H]1CSSC[C@H](C(=O)N[C@@H](CCCNC(=N)N)C(=O)N[C@@H](CCCNC(=N)N)C(=O)N[C@@H](CC(C)C)C(=O)N[C@H](C(=O)N[C@@H](CCC(=O)O)C(N)=O)[C@@H](C)O)NC(=O)[C@H](CC(C)C)NC(=O)[C@H](CCC(=O)O)NC1=O", "note": "[SD15807, Ac-Pro-Ser-Arg-Leu-Glu-(cyclo6)Cys-Glu-Leu-(cyclo9)dCys-Arg-Arg-Leu-Thr-Glu-NH2] (Ac-PSRLECEL[dC]RRLTE-NH2; disulfide 6-9)", "values": [{"measurement": "Conc. (% of T0)", "setting": "[1]; timepoint 0 h", "result": "100.0 % of T0"}, {"measurement": "Mean (compound concentration)", "setting": "[1]; timepoint 0 h", "result": "2.217 and 2.958"}, {"measurement": "Tube 2 (compound concentration)", "setting": "[1]; timepoint 0 h", "result": "2.230 and 3.034"}, {"measurement": "Tube 1 (compound concentration)", "setting": "[1]; timepoint 0 h, calibration range 0.1 to 10 μM", "result": "2.203 x and 2.882 x"}, {"measurement": "Mean (compound concentration)", "setting": "[1]; timepoint 1 h", "result": "2.093 and 2.872"}, {"measurement": "Tube 1 (compound concentration)", "setting": "[1]; timepoint 1 h", "result": "2.094 x and 2.884 x"}, {"measurement": "Tube 2 (compound concentration)", "setting": "[1]; timepoint 1 h", "result": "2.092 and 2.860"}, {"measurement": "Conc. (% of T0)", "setting": "[1]; timepoint 1 h, 60 min", "result": "97.1 % of T0"}, {"measurement": "Mean (compound concentration)", "setting": "[1]; timepoint 3 h", "result": "1.662 and 2.596"}, {"measurement": "Tube 1 (compound concentration)", "setting": "[1]; timepoint 3 h", "result": "1.583 x and 2.532 x"}, {"measurement": "Tube 2 (compound concentration)", "setting": "[1]; timepoint 3 h", "result": "1.740 and 2.660"}, {"measurement": "Conc. (% of T0)", "setting": "[1]; timepoint 3 h, 180 min", "result": "87.8 % of T0"}, {"measurement": "Conc. (% of T0)", "setting": "[1]; timepoint 6 h, 360 min", "result": "51.2 % of T0 and 77.7 % of T0"}, {"measurement": "remaining at 1 h, 10 µM", "setting": "[1]; human, human Li-heparin plasma, Conc. (% of T0), timepoint 1 h", "result": 94.4, "unit": "%"}, {"measurement": "remaining at 3 h, 10 µM", "setting": "[1]; human, human Li-heparin plasma, Conc. (% of T0), timepoint 3 h", "result": 75, "unit": "%"}, {"measurement": "half-life", "setting": "[1]; human, Flag (half-life, assay exceeded)", "result": "> 6", "unit": "h"}, {"measurement": "half-life", "setting": "[1]; human, Half-life time, incubation 24 h (triplicates) or 6 h (duplicates)", "result": 6.07, "unit": "h"}, {"measurement": "remaining at 1 h, 10 µM", "setting": "[2]; [3]", "result": 78.7, "unit": "%"}, {"measurement": "remaining at 3 h, 10 µM", "setting": "[2]; [3]", "result": 60.9, "unit": "%"}, {"measurement": "remaining at 6 h, 10 µM", "setting": "[2]; [3]", "result": 37, "unit": "%"}, {"measurement": "Conc. (% of T0)", "setting": "[2]; [4]", "result": "100.0 % of T0"}, {"measurement": "Mean (compound concentration)", "setting": "[2]; [4]", "result": 2.172}, {"measurement": "Tube 2 (compound concentration)", "setting": "[2]; [4]", "result": 2.194}, {"measurement": "Tube 1 (compound concentration)", "setting": "[2]; mouse plasma, 37° C., timepoint 0 h, calibration range 0.1 to 10 μM", "result": 2.149, "unit": "x"}, {"measurement": "Mean (compound concentration)", "setting": "[2]; [5]", "result": 1.710}, {"measurement": "Tube 1 (compound concentration)", "setting": "[2]; [5]", "result": 1.726, "unit": "x"}, {"measurement": "Tube 2 (compound concentration)", "setting": "[2]; [5]", "result": 1.693}, {"measurement": "Mean (compound concentration)", "setting": "[2]; [6]", "result": 1.322}, {"measurement": "Tube 1 (compound concentration)", "setting": "[2]; [6]", "result": 1.321, "unit": "x"}, {"measurement": "Tube 2 (compound concentration)", "setting": "[2]; [6]", "result": 1.323}, {"measurement": "Mean (compound concentration)", "setting": "[2]; [7]", "result": 0.804}, {"measurement": "Tube 1 (compound concentration)", "setting": "[2]; [7]", "result": 0.803, "unit": "x"}, {"measurement": "Tube 2 (compound concentration)", "setting": "[2]; [7]", "result": 0.804}, {"measurement": "half-life", "setting": "[2]; mouse, plasma, Half-life time, mouse plasma, 37° C., incubation 24 h (triplicates) or 6 h (duplicates)", "result": 4.32, "unit": "h"}]}
